The values below come from patent US9353075B2, “Disubstituted beta-lactones as inhibitors of N-acylethanolamine acid amidase (NAAA)” (The Regents of the University of California, priority 2011, dated 2016).

Each structure is given as a SMILES string.

The target in the first assay is r-NAAA (Rattus norvegicus (Rat), UniProt Q5KTC7). Briefly: r-NAAA inhibition, rat lung lysosomal NAAA preparation, UPLC/MS. The assay is classed as biochemical.
Chain of r-NAAA (Q5KTC7 34-362): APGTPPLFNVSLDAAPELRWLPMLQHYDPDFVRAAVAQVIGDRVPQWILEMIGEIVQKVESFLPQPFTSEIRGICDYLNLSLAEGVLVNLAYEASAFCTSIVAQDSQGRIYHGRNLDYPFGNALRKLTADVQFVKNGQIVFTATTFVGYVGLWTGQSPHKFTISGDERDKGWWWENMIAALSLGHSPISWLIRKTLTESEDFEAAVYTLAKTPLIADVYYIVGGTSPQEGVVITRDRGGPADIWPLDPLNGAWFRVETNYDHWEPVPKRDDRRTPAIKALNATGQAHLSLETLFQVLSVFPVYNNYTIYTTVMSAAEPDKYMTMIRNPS
Conditions: not given
Here is the method: Lysosomal NAAA protein preparation were obtained by homogenizing male Sprague-Dawley rat lungs (Charles River) in 20 mM Tris-HCl buffer pH 7.4 containing 0.32M sucrose. Samples were centrifuged at 800×g for 15 minutes at 4° C. Supernatants were then centrifuged at 12,000 g for 30 minutes at 4° C. Pellets were then resuspended in PBS pH 7.4 and subjected to a freeze/thaw cycle at −80° C. The suspension was finally centrifuged at 105,000×g for 1 hour at 4° C. The supernatant was then used in the enzymatic assay.
NAAA protein preparation was pre-incubated with various concentrations of test compounds or vehicle control in 100 mM NaH2PO4/Citrate buffer, 1% Triton-X, 3 mM DTT (pH 4.5) for 30 minutes at 37° C. Samples were then incubated with heptadecenoylethanolamide (50 μM, Avanti Polar Lipids) at 37° C. for 30 min. The reaction was terminated by addition of cold methanol containing heptadecanoic acid (NuCheck Prep) as internal standard. Samples were then analyzed by UPLC/MS (Acquity, Waters). Heptadecenoic and heptadecanoic acids were eluted on an Acquity UPLC BEH C18 column (50 mm length, 2.1 mm i.d., 1.7 μm pore size, Waters) isocratically at 0.5 mL/min for 1.5 min with a solvent mixture of 95% methanol and 5% water, both containing 0.25% Acetic Acid and 5 mM Ammonium Acetate. The column temperature was 40° C. Electrospray ionization was in the negative mode, capillary voltage was 0.5 kV, cone voltage was […], desolvation temperature was 500° C. N2 was used as drying gas at a flow rate of 1000 L/hour and a temperature of 500° C. The [M−H]^− ion was monitored in the selected-ion monitoring mode (m/z values: heptadecenoic acid 267.37, heptadecanoic acid 269.37). Calibration curves were generated using commercial heptadecenoic acid (NuCheck Prep). Inhibition of NAAA activity was calculated as reduction of heptadecenoic acid in the samples compared to vehicle controls. IC50 values were calculated by non-linear regression analysis of log [concentration]/inhibition curves using GraphPad Prism 5 (GraphPad Software Inc., CA—USA) applying a standard slope curve fitting.
As to `Cc1ccc(CCOC(=O)N[C@H]2C(=O)O[C@H]2C)cc1` [Example 3, 2-(4-methylphenyl)ethyl-[(2S,3R)-2-methyl-4-oxooxetan-3-yl]-carbamate], the IC50 (commonly the concentration needed to halve the response being measured) came to 1.21 µM.

Molecule `C[C@@H]1OC(=O)[C@@H]1NC(=O)OCCCCCCc1ccccc1` [Example 34, 6-Phenylhexyl-N-[(2S,3R)-2-methyl-4-oxo-oxetan-3-yl]-carbamate] showed an IC50 of 1.17 µM.

As to `CC(C)C(CCCCc1ccccc1)OC(=O)N[C@H]1C(=O)O[C@H]1C` (mixture of isomers) [Example 28, [(1R) and (1S)-1-Isopropyl-5-phenyl-pentyl]-N-[(2S,3R)-2-methyl-4-oxo-oxetan-3-yl]-carbamate], the IC50 came out at 0.1 µM.

Molecule `CCCCC1(OC(=O)N[C@H]2C(=O)O[C@H]2C)COC1` [Example 24, (3-butyloxetan-3-yl)-N-[(2S,3R)-2-methyl-4-oxo-oxetan-3-yl]-carbamate] returned an IC50 of 3.76 µM.

As for `CCCCCCCOC(=O)N[C@H]1C(=O)O[C@H]1C` [Example 40, Heptyl-N-[(2S,3R)-2-methyl-4-oxo-oxetan-3-yl]-carbamate], the IC50 is 0.04 µM.

Take `C[C@H]1OC(=O)[C@@H]1NC(=O)OCCCCCc1ccccc1` [Example 38, 5-Phenylpentyl-N-[(2R,3R)-2-methyl-4-oxo-oxetan-3-yl]-carbamate]: the IC50 was 0.018 µM. Compared with the last molecule, the IC50 is about 2.2-fold lower.

In the case of `C[C@@H]1OC(=O)[C@@H]1NC(=O)OCCCCCCCc1ccccc1` [Example 16, 7-Phenylheptyl-N-[(2S,3R)-2-methyl-4-oxo-oxetan-3-yl]-carbamate], the IC50 is 0.11 µM. Compared with the last molecule, the IC50 is about 6.1-fold higher.

The molecule `CCCCCCOC(=O)N[C@H]1C(=O)O[C@H]1C` [Example 39, Hexyl-N-[(2S,3R)-2-methyl-4-oxo-oxetan-3-yl]-carbamate] displayed an IC50 of 0.27 µM.

The molecule `C[C@@H]1OC(=O)[C@@H]1NC(=O)OCCCc1ccccc1` [Example 4, 3-phenylpropyl-[(2S,3R)-2-methyl-4-oxooxetan-3-yl]-carbamate] returned an IC50 of 0.084 µM.

`C[C@@H]1OC(=O)[C@@H]1NC(=O)OCCc1ccccc1` [Example 33, Phenethyl-N-[(2S,3R)-2-methyl-4-oxo-oxetan-3-yl]-carbamate] showed a concentration for half-maximal inhibition (IC50) of 2.52 µM.

`C[C@@H]1OC(=O)[C@@H]1NC(=O)OC1(C)CCCC1` [Example 23, (1-Methylcyclopentyl) N-[(2S,3R)-2-methyl-4-oxo-oxetan-3-yl]-carbamate] had a 50% inhibitory concentration (IC50) of 1.23 µM.

`C[C@@H]1OC(=O)[C@@H]1NC(=O)Oc1ccc(OCc2ccccc2)cc1` [Example 26, (4-benzyloxyphenyl)-N-[(2S,3R)-2-methyl-4-oxo-oxetan-3-yl]-carbamate] came in with an IC50 of 0.29 µM.

As for `C[C@@H]1OC(=O)[C@@H]1N(C)C(=O)OCCCCCc1ccccc1` [Example 41, 5-Phenylpentyl-N-methyl-N-[(2S,3R)-2-methyl-4-oxo-oxetan-3-yl]-carbamate], the “r-NAAA IC50 (μM) or % inhib. (result in words)” value is “No inhib”.

For `CCCCCOC(=O)N[C@H]1C(=O)O[C@H]1C` [Example 1, Pentyl-[(2S,3R)-2-methyl-4-oxooxetan-3-yl]-carbamate], the IC50 amounted to 0.67 µM.

Take `C[C@@H]1OC(=O)[C@@H]1NC(=O)OCCOCCc1ccccc1` [Example 36, 2-Phenethyloxyethyl-N-[(2S,3R)-2-methyl-4-oxo-oxetan-3-yl]-carbamate]: the IC50 came out at 0.14 µM.

Molecule `C[C@@H]1OC(=O)[C@@H]1NC(=O)OC1CCC(=Cc2ccccc2)CC1` (stereo partly drawn) [Example 31, (R,Z) and (S,E)-(4-Benzylidenecyclohexyl)-N-[(2S,3R)-2-methyl-4-oxooxetan-3-yl]-carbamate] showed an IC50 of 0.75 µM.

The molecule `C[C@@H]1OC(=O)[C@@H]1NC(=O)OC1(C)CCOCC1` [Example 11, (4-methyltetrahydropyran-4-yl)-N-[(2S,3R)-2-methyl-4-oxo-oxetan-3-yl]-carbamate] came in with an IC50 of 40 µM.

`C[C@H]1OC(=O)[C@H]1NC(=O)OCCCCCc1ccccc1` [Example 37, 5-Phenylpentyl-N-[(2R,3S)-2-methyl-4-oxo-oxetan-3-yl]-carbamate] gave an IC50 of 3.53 µM.

In turn, `C[C@@H]1OC(=O)[C@@H]1NC(=O)OC1CCN(C(=O)c2ccccc2)CC1` [Example 9, (1-benzoyl-4-piperidyl)-N-[(2S,3R)-2-methyl-4-oxo-oxetan-3-yl]-carbamate] yielded an IC50 of 1.31 µM. This IC50 is about 2.7-fold lower than that of the molecule before.

In turn, `C[C@@H]1OC(=O)[C@@H]1NC(=O)OC1(C)CCCCC1` [Example 10, (1-methylcyclohexyl)-[(2S,3R)-2-methyl-4-oxo-oxetan-3-yl]-carbamate] had an IC50 of 0.84 µM.

The same assay, now with this note: read-out: r-NAAA % inhib. @ 3 μM.
Consider `CC(C)(C)[C@@H]1OC(=O)[C@@H]1NC(=O)OCc1ccc(-c2ccccc2)cc1` (relative stereo) [Example 59, (4-Phenyl-phenyl)-methyl-N-[(2S*,3R*)-2-tert-butyl-4-oxo-oxetan-3-yl]-carbamate], for which the inhibition at 3 µM was found to be 57%.

In the case of `CC(C)[C@@H]1OC(=O)[C@@H]1NC(=O)OCc1ccc(-c2ccccc2)cc1` (relative stereo) [Example 54, (4-Phenylphenyl)-methyl-N-[(2S*,3R*)-2-isopropyl-4-oxo-oxetan-3-yl]-carbamate], the inhibition at 3 µM stood at 53%.

`CC(C)[C@H]1OC(=O)[C@@H]1NC(=O)OCCCCCc1ccccc1` (relative stereo) [Example 51, 5-Phenylpentyl-N-[(2R*,3R*)-2-isopropyl-4-oxo-oxetan-3-yl]-carbamate]: the inhibition at 3 µM was 92%.

For the molecule `CCC1OC(=O)C1NC(=O)OC(C)(C)C` (stereo not drawn) [Example 13, tert-Butyl-N-[(2S*,3R*)-2-ethyl-4-oxo-oxetan-3-yl]-carbamate and tert-Butyl-N-[(2S*,3S*)-2-ethyl-4-oxo-oxetan-3-yl]-carbamate], the inhibition at 3 µM is 48%.

For `CC(C)[C@H]1OC(=O)[C@@H]1NC(=O)OCc1ccc(-c2ccccc2)cc1` (relative stereo) [Example 52, (4-Phenylphenyl)-methyl-N-[(2R*,3R*)-2-isopropyl-4-oxo-oxetan-3-yl]-carbamate], the inhibition at 3 µM was found to be 93%.

Consider `C[C@@H]1OC(=O)[C@@H]1NC(=O)OC1CCN(Cc2ccccc2)CC1` [Example 21, (1-benzyl-4-piperidyl)-N-[(2S,3R)-2-methyl-4-oxo-oxetan-3-yl]-carbamate], for which the inhibition at 3 µM was found to be 21%.

As for `CC[C@@H]1OC(=O)[C@@H]1NC(=O)OCc1ccc(-c2ccccc2)cc1` (relative stereo) [Example 50, (4-Phenylphenyl)-methyl-N-[(2S*,3R*)-2-ethyl-4-oxo-oxetan-3-yl]-carbamate], the inhibition at 3 µM turned out to be 100%.

For the molecule `CC(C)[C@@H]1OC(=O)[C@@H]1NC(=O)OCCCCCc1ccccc1` (relative stereo) [Example 53, 5-Phenylpentyl-N-[(2S*,3R*)-2-isopropyl-4-oxo-oxetan-3-yl]-carbamate], the inhibition at 3 µM amounted to 55%.

For `CC(C)(C)[C@H]1OC(=O)[C@@H]1NC(=O)OCc1ccc(-c2ccccc2)cc1` (relative stereo) [Example 57, (4-Phenyl-phenyl)-methyl-N-[(2R*,3R*)-2-tert-butyl-4-oxo-oxetan-3-yl]-carbamate], the inhibition at 3 µM was 73%.

The assay is the same for the next values; noted with them: read-out: r-NAAA % inhib. @ 10 μM.
In the case of `C[C@@H]1OC(=O)[C@@H]1NC(=O)OCc1cccc(-c2ccccc2)c1` [Example 14, (3-phenylphenyl)-methyl-N-[(2S,3R)-2-methyl-4-oxo-oxetan-3-yl]-carbamate], the inhibition at 10 µM is 28%.
